“And” between values parts separate entries of the source, which are not always exact repeats. Identical values can stand only once.
Tests used:
[1] = target: T1, hSGLT2 D201A (Homo sapiens, UniProt P31639, D201A); assay: SGLT2 inhibitor-binding assay (AS-MS), crude membrane, D201A mutant; set-up: expressed in transfected cells; host or cells: Expi293 cells, crude membrane fraction; details: 30 nM canagliflozin; D201A; replicates
T1 sequence (P31639 1-672 D201A): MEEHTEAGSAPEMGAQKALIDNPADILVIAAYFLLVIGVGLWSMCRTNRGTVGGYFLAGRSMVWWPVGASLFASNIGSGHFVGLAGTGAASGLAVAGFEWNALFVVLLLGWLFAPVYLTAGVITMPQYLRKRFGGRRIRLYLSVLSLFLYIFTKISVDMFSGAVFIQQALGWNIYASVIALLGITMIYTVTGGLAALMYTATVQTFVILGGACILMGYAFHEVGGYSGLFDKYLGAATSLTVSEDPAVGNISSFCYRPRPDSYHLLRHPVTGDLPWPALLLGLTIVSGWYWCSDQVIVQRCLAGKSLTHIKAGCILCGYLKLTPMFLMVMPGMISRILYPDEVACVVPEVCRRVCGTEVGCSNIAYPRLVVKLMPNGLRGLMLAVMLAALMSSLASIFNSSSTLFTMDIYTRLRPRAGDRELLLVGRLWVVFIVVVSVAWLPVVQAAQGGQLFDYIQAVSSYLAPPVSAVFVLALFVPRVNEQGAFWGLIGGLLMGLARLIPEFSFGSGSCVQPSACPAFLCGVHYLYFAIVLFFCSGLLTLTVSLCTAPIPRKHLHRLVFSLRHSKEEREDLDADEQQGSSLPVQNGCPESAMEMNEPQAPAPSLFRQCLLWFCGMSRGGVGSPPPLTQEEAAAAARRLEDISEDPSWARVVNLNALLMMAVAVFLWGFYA
T1 sequence (Q13113 1-114 partner): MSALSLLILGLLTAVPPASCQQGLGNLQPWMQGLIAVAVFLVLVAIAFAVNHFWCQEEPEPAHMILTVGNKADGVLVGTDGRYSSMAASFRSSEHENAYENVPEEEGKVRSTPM
Description: (§1) hSGLT2 complementary DNA and human MAP17 cDNA were synthesized and codon-optimized for expression in human cell lines. Both cDNAs were cloned into the pcDNA3.4 vector. The hSGLT2 sequence was fused with an N-terminal signal sequence from human trypsinogen 1, a His10 tag, and sfGFP, followed by a human rhinovirus 3C protease (HRV3C protease) recognition site. Point mutations were introduced into this construct using site-directed mutagenesis. These plasmids were utilized for all experimental procedures conducted in this study.
To examine the inhibition of binding to the crude membrane, mammalian Expi293 cells were co-transfected with the hMAP17 and hSGLT2 plasmids, as described. […] The extract solution from the filter plate was diluted with water containing candesartan as an internal standard, and the SGLT2 inhibitor concentration was quantified via LC–MS/MS.
Nonspecific binding was measured using the crude membrane of nontransfected Expi293 cells. Specific binding was calculated by subtracting nonspecific binding from the binding of hSGLT2-expressing cells. Specific binding was normalized to hSGLT2 protein expression levels, measured via FSEC. The equilibrium dissociation constant (Kd) and maximum number of binding sites (Bmax) were calculated via nonlinear regression in GraphPad Prism 8.4.3. […]

[2] = target: T1, hSGLT2 D201A; assay: α-MG uptake in HEK293 cells, D201A mutant; format: cell-based; set-up: expressed in transfected cells
Description: as §1, with “study. […]” for “study.”
Cell lysates were deproteinized by adding acetonitrile containing candesartan as the internal standard. The α-MG concentration was quantified via liquid chromatography–tandem mass spectrometry (LC–MS/MS) using the internal standard method.
Cellular protein content was determined using a bicinchoninic acid protein assay kit (Thermo Fisher Scientific). The uptake of α-MG was expressed as the ratio of concentration in the cells (in pmol per mg protein) to concentration in the medium (in pmol μl^−1); this is known as the cell-to-medium ratio (in μl per mg protein).
In the inhibition study, the cell-to-medium ratio of cells transfected with the empty vector was used as the background. The specific α-MG uptake was calculated by subtracting this background from the total cell-to-medium ratio and normalized to the uptake achieved without the inhibitor. […]

## Cc1ccc([C@@H]2O[C@H](CO)[C@@H](O)[C@H](O)[C@H]2O)cc1Cc1ccc(-c2ccc(F)cc2)s1 [Canagliflozin]
[1]
  Canagliflozin binding (% of WT): 127.94 % of WT and 124.539 % of WT and 148.349 % of WT

## CO[C@H]1O[C@H](CO)[C@@H](O)[C@H](O)[C@H]1O [α-MG, α-methyl-D-glucopyranoside]
[2]; D201A mutant
  uptake of α-MG (in words): No clear uptake
[2]; Fig. 3h, D201A
  α-MG uptake: 6.25 μL/mg-protein and 10.67 μL/mg-protein and 6.52 μL/mg-protein

From PMC10803289, “Transport and inhibition mechanism of the human SGLT2–MAP17 glucose transporter” (Nature Structural & Molecular Biology, 2023)
